What was measured:
[1] = target: Gppcp-bound recombinant K-Ras4B G12C mutant protein (amino acids 1-169, C51S/C80L/C118S) (Homo sapiens, UniProt P01116, C118S/C51S/C80L/G12C); experiment: KRASG12C binding assay (LC-MS, compound binding rate); conditions: test compound final concentration 0.5 μM, 25° C., 1 hour
How it was run: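 Gppcp-bound K-Ras4B G12C (1-169; C51S/C80L/C118S), 50 nM in TBS with 0.1 mM TCEP, 0.25 mM MgCl2, 50 μM Gppcp, exposed to compound at 0.5 μM final for 1 h at 25 °C. Quenched with formic acid and analysed by intact-protein ESI LC-MS. Binding rate is the mono-adduct signal over total KRAS signal; graded A (≥80%) to E (<20%).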

[2] = target: T1, interaction between recombinant K-Ras4B G12C mutant protein and cRAF RAS-binding domain (cRAF-RBD) (Homo sapiens, UniProt P01116, G12C); experiment: Inhibitory activity on interaction between KRAS G12C and cRAF (Alpha technology); assay type: biochemical; conditions: GMPPNP-bound KRAS G12C incubated with compound at 25° C. for 1 hour, then cRAF-RBD; Alpha signal
T1 construct: made in house; host or cells: E. coli
How it was run: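 GMPPNP-loaded His-tagged KRAS G12C (aa 1-169, E. coli) preincubated with compound 1 h at 25° C in Tris pH 7.5, 100 mM NaCl, 1 mM MgCl2, TCEP, 0.1% Tween 20; cRAF-RBD (aa 50-132) added, 1.5 h RT, Alpha signal read. DMSO = 0%, GDP-bound KRAS = 100% inhibition; IC50 from dose titration fit.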

MIA PaCa-2 cells = experiment: Growth inhibition activity on KRAS-G12C mutant cell line (MIA PaCa-2), CellTiter-Glo 3D; assay type: cell-based, human; conditions: MIA PaCa-2, 3-day culture with compound
How it was run: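 Cells in RPMI1640 with 10% FBS were seeded in U-bottom plates and cultured 1 day at 37 °C, 5% CO2, then exposed to compound (0.2% DMSO final) for 3 more days. Viability read by CellTiter-Glo 3D luminescence; IC50 from growth inhibition relative to untreated wells.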

For `CCc1cc2c(ncn2C)c(Cl)c1-c1cccn2c(C(=O)c3cc(F)c(NC(=O)/C=C/CN[C@H]4CC[C@H](OC)CC4)c(F)c3)ccc12` [Example 10, (E)-N-(4-(8-(4-chloro-6-ethyl-1-methyl-1H-benzo[d]imidazol-5-yl)indolizine-3-carbonyl)-2,6-difluorophenyl)-4-(((1r,4r)-4-methoxycyclohexyl)amino)but-2-enamide], the binding rate [1] was “A (A binding rate of 80% or more is rated “A”)”, the IC50 [2] was 69 nM and the IC50 (MIA PaCa-2 cells; Homo sapiens, MIA PaCa-2, 72 h) was 94 nM.

With `Cc1nc2cc(-c3cccn4c(C(=O)c5cc(F)c(NC(=O)/C=C/CNC6(C)CC6)c(F)c5)ccc34)c(C(F)(F)F)cc2n1C` [Example 62, (E)-N-(4-(8-(1,2-dimethyl-6-(trifluoromethyl)-1H-benzo[d]imidazol-5-yl)indolizine-3-carbonyl)-2,6-difluorophenyl)-4-((1-methylcyclopropyl)amino)but-2-enamide] the binding rate [1] was “A (A binding rate of 80% or more is rated “A”)”, the IC50 [2] was 66 nM and the IC50 (MIA PaCa-2 cells; Homo sapiens, MIA PaCa-2, 72 h) was 140 nM.

With `CO[C@H]1CC[C@H](NC/C=C/C(=O)Nc2c(F)cc(C(=O)c3c[nH]c4c(-c5cc6nc(C)n(C)c6cc5C(F)(F)F)cccc34)cc2F)CC1` [Example 45, (E)-N-(4-(7-(1,2-dimethyl-6-(trifluoromethyl)-1H-benzo[d]imidazol-5-yl)-1H-indole-3-carbonyl)-2,6-difluorophenyl)-4-(((1r,4r)-4-methoxycyclohexyl)amino)but-2-enamide] the binding rate [1] was “A (A binding rate of 80% or more is rated “A”)”, the IC50 [2] was 76 nM and the IC50 (MIA PaCa-2 cells; Homo sapiens, MIA PaCa-2, 72 h) was 67 nM.

With `CO[C@H]1CC[C@H](NC/C=C/C(=O)Nc2c(F)cc(C(=O)c3ccc4c(-c5cc6nc(C)n(C)c6cc5C(F)(F)F)nccn34)cc2F)CC1` [Example 115, (E)-N-(4-(1-(1,2-dimethyl-6-(trifluoromethyl)-1H-benzo[d]imidazol-5-yl)pyrrolo[1,2-a]pyrazine-6-carbonyl)-2,6-difluorophenyl)-4-(((1r,4r)-4-methoxycyclohexyl)amino)but-2-enamide] the binding rate [1] was “B (a binding rate of 60% or more and less than 80% is rated “B”)”, the IC50 [2] was 452 nM and the IC50 (MIA PaCa-2 cells; Homo sapiens, MIA PaCa-2, 72 h) was 248 nM.

With `CO[C@H]1CC[C@H](NC/C=C/C(=O)Nc2c(F)cc(C(=O)c3ccc4c(-c5c(C)cc6c(nc(C)n6C)c5Cl)cccn34)cc2F)CC1` (single isomer, unassigned) [Example 19-1, (E)-N-(4-(8-(4-chloro-1,2,6-trimethyl-1H-benzo[d]imidazol-5-yl)indolizine-3-carbonyl)-2,6-difluorophenyl)-4-(((1r,4r)-4-methoxycyclohexyl)amino)but-2-enamide] the binding rate [1] was “A (A binding rate of 80% or more is rated “A”)”, the IC50 [2] was 20 nM and the IC50 (MIA PaCa-2 cells) was 47 nM.

In the case of `COc1c(-c2cccn3c(C(=O)c4cc(F)c(NC(=O)/C=C/CNC(C)(C)C)c(F)c4)ccc23)c(C)cc2c1nc(C)n2C` (single isomer, unassigned) [Example 40-1], the binding rate [1] is reported as “A (A binding rate of 80% or more is rated “A”)”, the IC50 [2] is reported as 340 nM and the IC50 (MIA PaCa-2 cells) is reported as 340 nM.

`COc1cc(N2CCCC2=O)cc(Cl)c1-c1cccn2c(C(=O)c3cc(F)c(NC(=O)/C=C/CN[C@H]4CC[C@H](OC)CC4)c(F)c3)ccc12` (single isomer, unassigned) [Example 30-1, (E)-N-(4-(8-(2-chloro-6-methoxy-4-(2-oxopyrrolidin-1-yl)phenyl)indolizine-3-carbonyl)-2,6-difluorophenyl)-4-(((1r,4r)-4-methoxycyclohexyl)amino)but-2-enamide] was tested, and the binding rate [1] was “A (A binding rate of 80% or more is rated “A”)”, the IC50 [2] was 130 nM and the IC50 (MIA PaCa-2 cells) was 360 nM.

With `Cc1nc2cc(-c3cccn4c(C(=O)c5cc(F)c(NC(=O)/C=C/CNC6(C)CCOCC6)c(F)c5)ccc34)c(C(F)(F)F)cc2n1C` [Example 26] the binding rate [1] was “A (A binding rate of 80% or more is rated “A”)”, the IC50 [2] was 62 nM and the IC50 (MIA PaCa-2 cells; Homo sapiens, MIA PaCa-2, 72 h) was 82 nM.

For `CO[C@H]1CC[C@H](NC/C=C/C(=O)Nc2c(F)cc(C(=O)c3ccc4c(-c5c(C)cc6c(ncn6C)c5C)cccn34)cc2F)CC1` (single isomer, unassigned) [Example 34-1, (E)-N-(2,6-difluoro-4-(8-(1,4,6-trimethyl-1H-benzo[d]imidazol-5-yl)indolizine-3-carbonyl)phenyl)-4-(((1r,4r)-4-methoxycyclohexyl)amino)but-2-enamide], the binding rate [1] was “A (A binding rate of 80% or more is rated “A”)”, the IC50 [2] was 94 nM and the IC50 (MIA PaCa-2 cells) was 130 nM.

With `COCc1nc2c(Cl)c(-c3cccn4c(C(=O)c5cc(F)c(NC(=O)/C=C/CNC(C)(C)C)c(F)c5)ccc34)c(C)cc2n1C` [Example 86, (E)-4-(tert-butylamino)-N-(4-(8-(4-chloro-2-(methoxymethyl)-1,6-dimethyl-1H-benzo[d]imidazol-5-yl)indolizine-3-carbonyl)-2,6-difluorophenyl)but-2-enamide] the binding rate [1] was “A (A binding rate of 80% or more is rated “A”)”, the IC50 [2] was 40 nM and the IC50 (MIA PaCa-2 cells; Homo sapiens, MIA PaCa-2, 72 h) was 81 nM.

In the case of `Cc1cc2c(ncn2C)c(Cl)c1-c1cccn2c(C(=O)c3cc(F)c(NC(=O)/C=C/CNC(C)(C)C)c(F)c3)ccc12` (single isomer, unassigned) [Example 13-2, (E)-4-(tert-butylamino)-N-(4-(8-(4-chloro-1,6-dimethyl-1H-benzo[d]imidazol-5-yl)indolizine-3-carbonyl)-2,6-difluorophenyl)but-2-enamide], the binding rate [1] is reported as “A (A binding rate of 80% or more is rated “A”)”, the IC50 [2] is reported as 320 nM and the IC50 (MIA PaCa-2 cells) is reported as 220 nM.

In the case of `CCc1cc2c(nc(C)n2C)c(Cl)c1-c1cccn2c(C(=O)c3cc(F)c(NC(=O)/C=C/CNC4CCOCC4)c(F)c3)ccc12` [Example 17, (E)-N-(4-(8(4-chloro-6-ethyl-1,2-dimethyl-1H-benzo[d]imidazol-5-yl)indolizine-3-carbonyl)-2,6-difluorophenyl)-4-((tetrahydro-2H-pyran-4-yl)amino)but-2-enamide], the binding rate [1] is reported as “A (A binding rate of 80% or more is rated “A”)”, the IC50 [2] is reported as 48 nM and the IC50 (MIA PaCa-2 cells; Homo sapiens, MIA PaCa-2, 72 h) is reported as 32 nM.

For `CO[C@H]1CC[C@H](NC/C=C/C(=O)Nc2c(F)cc(C(=O)c3cc(I)c4c(-c5c(C)cc6c(nc(C)n6C)c5Cl)cccn34)cc2F)CC1` [Example 75, (E)-N-(4-(8-(4-chloro-1,2,6-trimethyl-1H-benzo[d]imidazol-5-yl)-1-iodoindolizine-3-carbonyl)-2,6-difluorophenyl)-4-(((1r,4r)-4-methoxycyclohexyl)amino)but-2-enamide], the binding rate [1] was “A (A binding rate of 80% or more is rated “A”)”, the IC50 [2] was 37 nM and the IC50 (MIA PaCa-2 cells; Homo sapiens, MIA PaCa-2, 72 h) was 230 nM.

With `Cc1nc2cc(-c3cccn4c(C(=O)c5cc(F)c(NC(=O)/C=C/CNC6CCN(C)C(=O)C6)c(F)c5)ccc34)c(C(F)(F)F)cc2n1C` (stereo not drawn) [Example 72, (E)-N-(4-(8-(1,2-dimethyl-6-(trifluoromethyl)-1H-benzo[d]imidazol-5-yl)indolizine-3-carbonyl)-2,6-difluorophenyl)-4-((1-methyl-2-oxopiperidin-4-yl)amino)but-2-enamide] the binding rate [1] was “A (A binding rate of 80% or more is rated “A”)”, the IC50 [2] was 89 nM and the IC50 (MIA PaCa-2 cells; Homo sapiens, MIA PaCa-2, 72 h) was 100 nM.

With `CO[C@H]1CC[C@H](NC/C=C/C(=O)Nc2c(F)cc(C(=O)c3ccc4c(-c5c(C)cc6c(ncn6C)c5C)cccn34)cc2F)CC1` (single isomer, unassigned) [Example 34-2, (E)-N-(2,6-difluoro-4-(8-(1,4,6-trimethyl-1H-benzo[d]imidazol-5-yl)indolizine-3-carbonyl)phenyl)-4-(((1r,4r)-4-methoxycyclohexyl)amino)but-2-enamide] the binding rate [1] was “B (a binding rate of 60% or more and less than 80% is rated “B”)”, the IC50 [2] was 200 nM and the IC50 (MIA PaCa-2 cells) was 310 nM.

In the case of `C#Cc1cc(C(=O)c2cc(F)c(NC(=O)/C=C/CN[C@H]3CC[C@H](OC)CC3)c(F)c2)n2cccc(-c3c(C)cc4c(nc(C)n4C)c3Cl)c12` [Example 100], the binding rate [1] is reported as “A (A binding rate of 80% or more is rated “A”)”, the IC50 [2] is reported as 71 nM and the IC50 (MIA PaCa-2 cells; Homo sapiens, MIA PaCa-2, 72 h) is reported as 96 nM.

With `COc1c(-c2cccn3c(C(=O)c4cc(F)c(NC(=O)/C=C/CNC5(C)CC5)c(F)c4)c(C)nc23)c(C(F)(F)F)cc2c1nc(C)n2C` (single isomer, unassigned) [Example 109-2, (E)-N-(2,6-difluoro-4(8-(4-methoxy-1,2-dimethyl-6-(trifluoromethyl)-1H-benzo[d]imidazol-5-yl)-2-methylimidazo[1,2-a]pyridine-3-carbonyl)phenyl)-4-((1-methylcyclopropyl)amino)but-2-enamide] the binding rate [1] was “D (a binding rate of 20% or more and less than 40% is rated “D”)”, the IC50 [2] was 1210 nM and the IC50 (MIA PaCa-2 cells) was 784 nM.

`Cc1nc2cc(-c3cccn4c(C(=O)c5cc(F)c(NC(=O)/C=C/CNC6CCOCC6)c(F)c5)ccc34)c(C(F)(F)F)cc2n1C` [Example 24, (E)-N-(4-(8(1,2-dimethyl-6-(trifluoromethyl)-1H-benzo[d]imidazol-5-yl)indolizine-3-carbonyl)-2,6-difluorophenyl)-4-((tetrahydro-2H-pyran-4-yl)amino)but-2-enamide] was tested, and the binding rate [1] was “A (A binding rate of 80% or more is rated “A”)”, the IC50 [2] was 54 nM and the IC50 (MIA PaCa-2 cells; Homo sapiens, MIA PaCa-2, 72 h) was 54 nM.
